Data published in patent US20180057505A1, “BICYCLIC HETEROARYL COMPOUNDS USEFUL AS INHIBITORS OF THE PAR-2 SIGNALING PATHWAY” (VERTEX PHARMACEUTICALS INCORPORATED, priority 2015, published 2018).
Each block holds one compound with its values, some of them ahead of it.

Legend:
Assay type in all cases: cell-based
[1] = target: T1, PAR2 (HT-29 cells) (Homo sapiens, UniProt P55085); test: Ca FLIPR TETRA assay, ANTAGONIST mode, activator 8 μM SLIGKV; settings: for IC50: HT-29 cells, activator 8 μM SLIGKV, maximal antagonist concentration per Method (A: 0.1, 1 or 2 μM; B: 50 μM); for SLIGKV, % @ 50: @ 50 (μM)
T1 construct: host or cells: HT-29
T1 sequence (P55085 26-397): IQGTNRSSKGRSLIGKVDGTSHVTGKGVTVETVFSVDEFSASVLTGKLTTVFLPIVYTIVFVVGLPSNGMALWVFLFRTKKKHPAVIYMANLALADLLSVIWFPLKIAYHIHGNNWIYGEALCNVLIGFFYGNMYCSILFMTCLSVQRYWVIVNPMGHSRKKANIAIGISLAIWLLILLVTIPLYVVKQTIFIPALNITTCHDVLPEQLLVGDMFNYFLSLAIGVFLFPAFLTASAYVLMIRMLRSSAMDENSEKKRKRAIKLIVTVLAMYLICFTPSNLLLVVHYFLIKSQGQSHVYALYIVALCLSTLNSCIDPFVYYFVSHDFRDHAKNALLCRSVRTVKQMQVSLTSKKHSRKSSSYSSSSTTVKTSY
In short: (§1)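 Fluorescent Ca2+ dye (calcium 5) loading of overnight-plated HT-29 cells preceded compound addition and a 30 min room-temperature incubation. Responses to the specified activator concentration were then read by FLIPR Tetra in the same plate.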

[2] = target: T1, PAR2 (HT-29 cells); test: Ca FLIPR TETRA assay, ANTAGONIST mode, activator 3.1 U/mL trypsin; settings: for IC50: HT-29 cells, activator 3.1 U/mL trypsin, maximal antagonist concentration per Method (A: 0.1, 1 or 2 μM; B: 50 μM); for Trypsin, % @ 50: @ 50 (μM)
In short: as §1

[3] = system: Thrombin-stimulated Ca2+ response in HT-29 cells; test: Ca FLIPR TETRA assay, ANTAGONIST mode, activator 1 U/mL Thrombin; settings: for IC50: HT-29 cells, activator 1 U/mL Thrombin
In short: as §1

[4] = system: UTP-stimulated Ca2+ response in HT-29 cells; test: Ca FLIPR TETRA assay, ANTAGONIST mode, activator 0.6 μM UTP; settings: HT-29 cells, activator 0.6 μM UTP
In short: as §1

SMILES: CC1(c2cc(-c3ccc(F)cc3)nc3cc(C(=O)N4CCN(C(=O)C5(c6ccc(Cl)cc6)CC5)CC4(C)C)oc23)CC1 [Example I-53]
IC50 [1]: 0.053 µM
IC50 [2]: 0.074 µM
IC50 ([3]; Homo sapiens): > 50 µM
IC50 ([4]; Homo sapiens): > 50 µM

SMILES: CC1(c2cc(-c3ccc(F)cc3)nc3cc(C(=O)N4CCN(C(=O)C5(O)CCC5)CC4(C)C)oc23)CC1 [Example I-56]
IC50 [1]: 0.016 µM
IC50 [2]: 0.031 µM
IC50 ([3]; Homo sapiens): 9 µM
IC50 ([4]; Homo sapiens): 5.2 µM

SMILES: CC1(c2cc(-c3ccc(F)cc3)nc3cc(C(=O)N4CCN(C(=O)C5(O)CCOCC5)CC4(C)C)oc23)CC1 [Example I-57]
IC50 [1]: 0.053 µM
IC50 [2]: 0.077 µM
IC50 ([3]; Homo sapiens): 6.8 µM
IC50 ([4]; Homo sapiens): 8.6 µM

SMILES: CC[C@H](O)C(=O)N1CCN(C(=O)c2cc3nc(-c4ccc(F)cc4)cc(C4(C)CC4)c3o2)C(C)(C)C1 [Example I-59]
IC50 [1]: 0.021 µM
IC50 [2]: 0.049 µM
IC50 ([3]; Homo sapiens): 15 µM
IC50 ([4]; Homo sapiens): 15 µM

SMILES: CC1(c2cc(-c3ccc(F)cc3)nc3cc(C(=O)N4CCN(C(=O)C5CCOC5)CC4(C)C)oc23)CC1 (stereo not shown) [Example I-60]
IC50 [1]: 0.048 µM
IC50 [2]: 0.067 µM
IC50 [3]: 14 µM
IC50 [4]: 13 µM

SMILES: CC(C)c1cc(-c2ccc(F)cc2)nc2cc(C(=O)N3CCN(C(=O)CC(C)(C)O)CC3(C)C)oc12 [Example I-62]
IC50 [1]: 0.04 µM
IC50 [2]: 0.039 µM
IC50 ([3]; Homo sapiens): 4.7 µM
IC50 ([4]; Homo sapiens): 5.2 µM

SMILES: CO[C@H](C)C(=O)N1CCN(C(=O)c2cc3nc(-c4ccc(F)cc4)cc(C(C)C)c3o2)C(C)(C)C1 [Example I-63]
IC50 [1]: 0.062 µM
IC50 [2]: 0.11 µM
IC50 ([3]; Homo sapiens): 18 µM
IC50 ([4]; Homo sapiens): 19 µM

SMILES: CO[C@@H](C(=O)N1CCN(C(=O)c2cc3nc(-c4ccc(F)cc4)cc(C(C)C)c3o2)C(C)(C)C1)c1ccccc1 [Example I-66]
IC50 [1]: 0.013 µM
IC50 [2]: 0.015 µM
IC50 ([3]; Homo sapiens): > 50 µM
IC50 ([4]; Homo sapiens): > 50 µM

SMILES: CCC(O)(CC)C(=O)N1CCN(C(=O)c2cc3nc(-c4ccc(F)cc4)cc(C(C)C)c3o2)C(C)(C)C1 [Example I-69]
IC50 [1]: 0.032 µM
IC50 [2]: 0.052 µM
IC50 ([3]; Homo sapiens): 37 µM
IC50 ([4]; Homo sapiens): > 32 µM

SMILES: CC(C)c1cc(-c2ccc(F)cc2)nc2cc(C(=O)N3CCN(C(=O)C4(O)CC4)CC3(C)C)oc12 [Example I-70]
IC50 [1]: 0.017 µM
IC50 [2]: 0.023 µM
IC50 ([3]; Homo sapiens): 15 µM
IC50 ([4]; Homo sapiens): 16 µM

SMILES: CC(C)c1cc(-c2ccc(F)cc2)nc2cc(C(=O)N3CCN(C(=O)[C@H]4CCCO4)CC3(C)C)oc12 [Example I-75]
IC50 [1]: 0.024 µM
IC50 [2]: 0.14 µM
IC50 ([3]; Homo sapiens): 31 µM
IC50 ([4]; Homo sapiens): 23 µM

SMILES: CC(C)c1cc(-c2ccc(F)cc2)nc2cc(C(=O)N3CCN(C(=O)OC(C)(C)C)CC3)oc12 [Example I-77]
SLIGKV, % @ 50 [1]: 64% @ 50
IC50 [2]: 23 µM
IC50 ([3]; Homo sapiens): > 50 µM
IC50 ([4]; Homo sapiens): > 50 µM

SMILES: CC(C)c1cc(-c2ccc(F)cc2)nc2cc(C(=O)N3CCN(C(=O)OC(C)(C)C)C[C@H]3C)oc12 [Example I-78]
SLIGKV, % @ 50 [1]: 70% @ 50
Trypsin, % @ 50 [2]: 65% @ 50
IC50 [3]: > 50 µM
IC50 [4]: > 50 µM

SMILES: CC(C)c1cc(-c2ccc(F)cc2)nc2cc(C(=O)N3CCN(C(=O)OC(C)(C)C)C[C@@H]3C)oc12 [Example I-79]
IC50 [1]: 1.7 µM
Trypsin, % @ 50 [2]: 60% @ 50
Thrombin, % @ 50 ([3]; @ 50 (μM)): 26% @ 50
IC50 ([4]; Homo sapiens): > 50 µM

SMILES: CC(C)c1cc(-c2ccc(F)cc2)nc2cc(C(=O)N3CCN(C(=O)C4CCOC4)[C@@H](C)C3)oc12 (stereo partly shown) [Example I-80]
IC50 [1]: 1.6 µM
IC50 [2]: 4.7 µM
IC50 ([3]; Homo sapiens): 19 µM
IC50 ([4]; Homo sapiens): 20 µM

More lines, in order of falling IC50 [1], values ahead:

IC50 [1]: 0.01 µM
IC50 [2]: 0.016 µM
IC50 ([3]; Homo sapiens): 2.7 µM
IC50 ([4]; Homo sapiens): 2.8 µM
SMILES: CC(C)c1cc(-c2ccc(F)cc2)nc2cc(C(=O)N3CCN(C(=O)c4ccn[nH]4)CC3(C)C)oc12 [Example I-65]

IC50 [1]: 0.01 µM
IC50 [2]: 0.026 µM
IC50 ([3]; Homo sapiens): 29 µM
IC50 ([4]; Homo sapiens): 21 µM
SMILES: CC(C)c1cc(-c2ccc(F)cc2)nc2cc(C(=O)N3CCN(C(=O)C(C)(O)C(F)(F)F)CC3(C)C)oc12 (stereo not shown) [Example I-68]

IC50 [1]: 0.0059 µM
IC50 [2]: 0.012 µM
IC50 ([3]; Homo sapiens): 15 µM
IC50 ([4]; Homo sapiens): 18 µM
SMILES: CC1(c2cc(-c3ccc(F)cc3)nc3cc(C(=O)N4CCN(C(=O)C5CC5)CC4(C)C)oc23)CC1 [Example I-49]

IC50 [1]: 0.0058 µM
IC50 [2]: 0.0053 µM
IC50 ([3]; Homo sapiens): 24 µM
IC50 ([4]; Homo sapiens): > 50 µM
SMILES: CC1(c2cc(-c3ccc(F)cc3)nc3cc(C(=O)N4CCN(C(=O)C5(C#N)CC5)CC4(C)C)oc23)CC1 [Example I-51]

IC50 [1]: 0.0053 µM
IC50 [2]: 0.0077 µM
IC50 ([3]; Homo sapiens): 11 µM
IC50 ([4]; Homo sapiens): 13 µM
SMILES: CC(C)c1cc(-c2ccc(F)cc2)nc2cc(C(=O)N3CCN(C(=O)[C@H](O)C(C)C)CC3(C)C)oc12 [Example I-74]

IC50 [1]: 0.0052 µM
IC50 [2]: 0.0074 µM
IC50 ([3]; Homo sapiens): > 50 µM
IC50 ([4]; Homo sapiens): > 50 µM
SMILES: CC(Oc1ccccc1)C(=O)N1CCN(C(=O)c2cc3nc(-c4ccc(F)cc4)cc(C(C)C)c3o2)C(C)(C)C1 (stereo not shown) [Example I-67]

IC50 [1]: 0.0049 µM
IC50 [2]: 0.0051 µM
IC50 ([3]; Homo sapiens): > 50 µM
IC50 ([4]; Homo sapiens): > 50 µM
SMILES: CC1(c2cc(-c3ccc(F)cc3)nc3cc(C(=O)N4CCN(C(=O)C5C(C)(C)C5(C)C)CC4(C)C)oc23)CC1 [Example I-50]

IC50 [1]: 0.0048 µM
IC50 [2]: 0.011 µM
IC50 ([3]; Homo sapiens): 17 µM
IC50 ([4]; Homo sapiens): 13 µM
SMILES: CC[C@@H](O)C(=O)N1CCN(C(=O)c2cc3nc(-c4ccc(F)cc4)cc(C(C)C)c3o2)C(C)(C)C1 [Example I-61]

IC50 [1]: 0.0045 µM
IC50 [2]: 0.0063 µM
IC50 ([3]; Homo sapiens): 9.6 µM
IC50 ([4]; Homo sapiens): 7.9 µM
SMILES: CC1(c2cc(-c3ccc(F)cc3)nc3cc(C(=O)N4CCN(C(=O)C5CCOCC5)CC4(C)C)oc23)CC1 [Example I-54]

IC50 [1]: 0.0045 µM
IC50 [2]: 0.006 µM
IC50 ([3]; Homo sapiens): 30 µM
IC50 ([4]; Homo sapiens): 21 µM
SMILES: CC(C)c1cc(-c2ccc(F)cc2)nc2cc(C(=O)N3CCN(C(=O)C4CCCCO4)CC3(C)C)oc12 (stereo not shown) [Example I-64]

IC50 [1]: 0.0042 µM
IC50 [2]: 0.006 µM
IC50 ([3]; Homo sapiens): > 50 µM
IC50 ([4]; Homo sapiens): > 50 µM
SMILES: CCC(C)(C)C(=O)N1CCN(C(=O)c2cc3nc(-c4ccc(F)cc4)cc(C4(C)CC4)c3o2)C(C)(C)C1 [Example I-52]

IC50 [1]: 0.0028 µM
IC50 [2]: 0.0046 µM
IC50 ([3]; Homo sapiens): 29 µM
IC50 ([4]; Homo sapiens): > 33 µM
SMILES: CC1(c2cc(-c3ccc(F)cc3)nc3cc(C(=O)N4CCN(C(=O)C5(C(F)(F)F)CC5)CC4(C)C)oc23)CC1 [Example I-55]

IC50 [1]: 0.0026 µM
IC50 [2]: 0.0047 µM
IC50 ([3]; Homo sapiens): 35 µM
IC50 ([4]; Homo sapiens): 36 µM
SMILES: CC(C)c1cc(-c2ccc(F)cc2)nc2cc(C(=O)N3CCN(C(=O)C4CCCC4)CC3(C)C)oc12 [Example I-71]

IC50 [1]: 0.0024 µM
IC50 [2]: 0.0042 µM
IC50 ([3]; Homo sapiens): 8.5 µM
IC50 ([4]; Homo sapiens): 17 µM
SMILES: CC(C)c1cc(-c2ccc(F)cc2)nc2cc(C(=O)N3CCN(C(=O)c4ccon4)CC3(C)C)oc12 [Example I-73]

IC50 [1]: 0.0023 µM
IC50 [2]: 0.0031 µM
IC50 ([3]; Homo sapiens): 14 µM
IC50 ([4]; Homo sapiens): 13 µM
SMILES: CC(C)c1cc(-c2ccc(F)cc2)nc2cc(C(=O)N3CCN(C(=O)C4CC4(F)F)CC3(C)C)oc12 (stereo not shown) [Example I-72]

IC50 [1]: 0.00031 µM
IC50 [2]: 0.00064 µM
IC50 ([3]; Homo sapiens): 19 µM
IC50 ([4]; Homo sapiens): 30 µM
SMILES: CC1(c2cc(-c3ccc(F)cc3)nc3cc(C(=O)N4CCN(C(=O)C5CC(O)(C(F)(F)F)C5)CC4(C)C)oc23)CC1 (stereo not shown) [Example I-58]
